{
  "source": "patent US12233057B2",
  "about": "“Small molecules for inhibiting chemokine activity and/or cancer cells growth” (AlonBio Ltd., priority 2015, dated 2025)",
  "key": {"MIP3a": {"target": "MIP3a (Homo sapiens, UniProt P78556)", "sequence (P78556 27-96)": "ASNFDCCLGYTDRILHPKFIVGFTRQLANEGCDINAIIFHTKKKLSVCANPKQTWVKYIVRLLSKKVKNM", "assay": "Migration assay: CD4+ T-cells toward MIP3a (Transwell)", "type": "cell-based", "conditions": "BKT300 at 78% purity, 50 μg/ml", "procedure": "(§1) 600 μl of RPMI medium was added to the lower chambers of Transwell® transmigration plates, supplemented with 2 μg/ml of MIP3a, 100 ng/ml of SDF-1 or 10 ng/ml of MCP-1. The tested small molecule was added to the lower chambers at the indicated concentration, except in control samples. The MIP3a, SDF-1 or MCP-1 was incubated with the small molecule for 30 minutes at room temperature before the initiation of the migration assay. Following 30 minutes of incubation 2×10^5 immune cells were added to the upper chambers of the transmigration plates in a total volume of 100 μl. Cells which migrated within 3 hours to the bottom chamber of the Transwell® plates were counted using a FACScalibur™ flow cytometer.\nTo evaluate migration toward MIP3a, peripheral blood mononuclear cells (PBMCs) were isolated from heparinized venous blood by centrifugation over Ficoll Histopaque® 1077. CD4+ T cells were further isolated with RosetteSep™ human CD4+ T-cell Enrichment cocktail (StemCell Technologies Inc.), according to the manufacturer's instructions.\nThe 18 compounds uncovered by the screening assay were further tested for their ability, at final concentrations of 10 and 50 μg/ml, to inhibit the migration of human CD4+ T-cells toward MIP3a; and to inhibit the migration of immune cells in response to MCP-1 and SDF-1, using the procedures described in the Materials and Methods section hereinabove."}, "MCP-1": {"target": "MCP-1 (Homo sapiens, UniProt P13500)", "sequence (P13500 24-99)": "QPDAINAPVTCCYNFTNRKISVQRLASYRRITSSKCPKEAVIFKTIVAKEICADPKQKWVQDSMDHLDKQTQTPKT", "assay": "Migration assay: THP-1 cells towards MCP-1 (Transwell)", "type": "cell-based", "conditions": "BKT300 at 78% purity", "procedure": "as §1\nTo evaluate migration towards MCP-1, JTHP-1 cells were re-suspended in RPMI medium containing 1% fetal calf serum (FCS)."}, "BMPR1A (ALK3)": {"target": "BMPR1A (ALK3) (Homo sapiens, UniProt P36894)", "assay": "LanthaScreen europium kinase binding assay", "conditions": "BKT300 at 78% purity", "procedure": "(§2) In order to further characterize the effect of BKT300 on cell signaling, kinase profiling of BKT300 (at 78% purity) was performed (by the Life Technologies SelectScreen® Biochemical Profiling Lab) using a LanthaScreen® europium kinase binding assay to screen 440 kinases.\n(§3) The principle of the LanthaScreen® assay is depicted in FIG. 13. Binding of an Alexa Fluor® conjugate or “tracer” to a kinase is detected by addition of a europium (Eu)-labeled anti-tag antibody. Binding of the tracer and antibody to a kinase results in a high degree of FRET, whereas displacement of the tracer with a kinase inhibitor results in a loss of FRET. The kinase tracers are based on ATP-competitive kinase inhibitors, making them suitable for detection of any compounds that bind to the ATP site. Inhibitors that bind the ATP site include both Type I kinase inhibitors, which bind solely to the ATP site, and Type II inhibitors (e.g., imatinib, sorafenib, BIRB-796), which bind to both the ATP site and a second site often referred to as the allosteric site."}, "CDC7/DBF4": {"target": "CDC7/DBF4 (Homo sapiens, UniProt O00311)", "assay": "LanthaScreen europium kinase binding assay", "conditions": "BKT300 at 78% purity", "procedure": "as §2, §3"}, "CDK1/cyclin A2": {"target": "CDK1/cyclin A2 (Homo sapiens, UniProt P06493)", "assay": "LanthaScreen europium kinase binding assay", "conditions": "BKT300 at 78% purity", "procedure": "as §2, §3"}, "CLK4": {"target": "CLK4 (Homo sapiens, UniProt Q9HAZ1)", "assay": "LanthaScreen europium kinase binding assay", "conditions": "BKT300 at 78% purity", "procedure": "as §2, §3"}, "DAPK1": {"target": "DAPK1 (Homo sapiens, UniProt P53355)", "assay": "LanthaScreen europium kinase binding assay", "conditions": "BKT300 at 78% purity", "procedure": "as §2, §3"}, "DAPK2": {"target": "DAPK2 (Homo sapiens, UniProt Q9UIK4)", "sequence (Q9UIK4 whole entry)": "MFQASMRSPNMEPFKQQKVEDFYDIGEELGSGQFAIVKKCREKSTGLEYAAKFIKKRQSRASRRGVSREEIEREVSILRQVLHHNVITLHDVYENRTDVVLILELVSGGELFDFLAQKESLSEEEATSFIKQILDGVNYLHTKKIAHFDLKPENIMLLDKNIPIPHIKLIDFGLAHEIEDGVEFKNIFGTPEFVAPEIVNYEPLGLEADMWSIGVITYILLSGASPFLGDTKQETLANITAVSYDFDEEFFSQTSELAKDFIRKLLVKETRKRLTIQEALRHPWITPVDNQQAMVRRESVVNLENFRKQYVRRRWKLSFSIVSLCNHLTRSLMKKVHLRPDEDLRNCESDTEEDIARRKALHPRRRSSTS", "assay": "LanthaScreen europium kinase binding assay", "conditions": "BKT300 at 78% purity", "procedure": "as §2, §3"}, "DYRK3": {"target": "DYRK3 (Homo sapiens, UniProt O43781)", "sequence (O43781 whole entry)": "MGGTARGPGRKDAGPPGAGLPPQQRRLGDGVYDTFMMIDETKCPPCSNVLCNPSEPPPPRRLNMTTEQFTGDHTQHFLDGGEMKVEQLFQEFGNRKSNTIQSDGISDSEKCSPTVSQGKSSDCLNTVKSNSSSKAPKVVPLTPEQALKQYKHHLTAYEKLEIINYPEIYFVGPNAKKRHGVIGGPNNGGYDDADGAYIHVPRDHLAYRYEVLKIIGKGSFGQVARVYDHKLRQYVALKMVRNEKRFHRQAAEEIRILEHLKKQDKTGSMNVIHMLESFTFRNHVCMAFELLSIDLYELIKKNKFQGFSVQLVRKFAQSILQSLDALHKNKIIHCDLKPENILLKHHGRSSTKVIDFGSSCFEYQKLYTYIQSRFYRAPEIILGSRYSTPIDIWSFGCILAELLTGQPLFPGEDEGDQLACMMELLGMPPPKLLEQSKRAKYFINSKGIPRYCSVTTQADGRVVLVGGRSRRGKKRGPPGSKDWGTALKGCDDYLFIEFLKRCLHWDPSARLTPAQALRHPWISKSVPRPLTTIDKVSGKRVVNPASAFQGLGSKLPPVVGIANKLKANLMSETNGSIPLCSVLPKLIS", "assay": "LanthaScreen europium kinase binding assay", "conditions": "BKT300 at 78% purity", "procedure": "as §2, §3"}, "GRK4": {"target": "GRK4 (Homo sapiens, UniProt P32298)", "assay": "LanthaScreen europium kinase binding assay", "conditions": "BKT300 at 78% purity", "procedure": "as §2, §3"}, "GRK5": {"target": "GRK5 (Homo sapiens, UniProt P34947)", "sequence (P34947 whole entry)": "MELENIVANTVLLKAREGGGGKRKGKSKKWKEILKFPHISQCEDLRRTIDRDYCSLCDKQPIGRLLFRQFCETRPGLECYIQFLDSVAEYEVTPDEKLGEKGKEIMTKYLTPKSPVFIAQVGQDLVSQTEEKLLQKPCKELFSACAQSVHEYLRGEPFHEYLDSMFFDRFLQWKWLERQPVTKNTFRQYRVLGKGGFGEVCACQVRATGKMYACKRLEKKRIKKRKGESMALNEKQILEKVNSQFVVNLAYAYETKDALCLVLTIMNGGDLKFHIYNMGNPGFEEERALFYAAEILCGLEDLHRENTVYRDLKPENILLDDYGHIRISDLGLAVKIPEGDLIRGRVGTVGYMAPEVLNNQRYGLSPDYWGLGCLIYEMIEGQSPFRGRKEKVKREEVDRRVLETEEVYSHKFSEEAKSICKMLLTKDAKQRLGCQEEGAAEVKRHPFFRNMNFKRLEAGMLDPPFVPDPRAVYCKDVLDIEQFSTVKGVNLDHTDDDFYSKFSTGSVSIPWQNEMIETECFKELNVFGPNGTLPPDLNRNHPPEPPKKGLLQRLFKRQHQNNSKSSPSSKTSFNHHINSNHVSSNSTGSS", "assay": "LanthaScreen europium kinase binding assay", "conditions": "BKT300 at 78% purity", "procedure": "as §2, §3"}, "ICK": {"target": "ICK (Homo sapiens, UniProt Q9UPZ9)", "sequence (Q9UPZ9 whole entry)": "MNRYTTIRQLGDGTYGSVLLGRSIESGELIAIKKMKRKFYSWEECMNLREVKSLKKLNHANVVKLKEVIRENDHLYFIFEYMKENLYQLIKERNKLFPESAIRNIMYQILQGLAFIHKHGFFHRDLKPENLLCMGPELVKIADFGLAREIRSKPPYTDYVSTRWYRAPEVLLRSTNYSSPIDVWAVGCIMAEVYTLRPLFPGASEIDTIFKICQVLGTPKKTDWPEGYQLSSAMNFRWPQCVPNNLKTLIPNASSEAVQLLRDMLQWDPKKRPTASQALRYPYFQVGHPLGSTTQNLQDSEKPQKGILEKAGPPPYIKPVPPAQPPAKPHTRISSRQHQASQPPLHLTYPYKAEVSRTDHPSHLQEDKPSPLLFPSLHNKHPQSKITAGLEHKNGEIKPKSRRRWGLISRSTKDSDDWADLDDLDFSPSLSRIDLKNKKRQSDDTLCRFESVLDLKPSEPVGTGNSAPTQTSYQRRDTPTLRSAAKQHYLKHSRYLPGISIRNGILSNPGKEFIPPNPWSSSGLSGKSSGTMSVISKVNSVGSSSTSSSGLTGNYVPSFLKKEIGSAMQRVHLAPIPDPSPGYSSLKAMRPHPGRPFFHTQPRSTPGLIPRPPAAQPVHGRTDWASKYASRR", "assay": "LanthaScreen europium kinase binding assay", "conditions": "BKT300 at 78% purity", "procedure": "as §2, §3"}, "KIT D820E": {"target": "KIT D820E (Homo sapiens, UniProt P10721, D820E)", "sequence (P10721 26-976 D820E)": "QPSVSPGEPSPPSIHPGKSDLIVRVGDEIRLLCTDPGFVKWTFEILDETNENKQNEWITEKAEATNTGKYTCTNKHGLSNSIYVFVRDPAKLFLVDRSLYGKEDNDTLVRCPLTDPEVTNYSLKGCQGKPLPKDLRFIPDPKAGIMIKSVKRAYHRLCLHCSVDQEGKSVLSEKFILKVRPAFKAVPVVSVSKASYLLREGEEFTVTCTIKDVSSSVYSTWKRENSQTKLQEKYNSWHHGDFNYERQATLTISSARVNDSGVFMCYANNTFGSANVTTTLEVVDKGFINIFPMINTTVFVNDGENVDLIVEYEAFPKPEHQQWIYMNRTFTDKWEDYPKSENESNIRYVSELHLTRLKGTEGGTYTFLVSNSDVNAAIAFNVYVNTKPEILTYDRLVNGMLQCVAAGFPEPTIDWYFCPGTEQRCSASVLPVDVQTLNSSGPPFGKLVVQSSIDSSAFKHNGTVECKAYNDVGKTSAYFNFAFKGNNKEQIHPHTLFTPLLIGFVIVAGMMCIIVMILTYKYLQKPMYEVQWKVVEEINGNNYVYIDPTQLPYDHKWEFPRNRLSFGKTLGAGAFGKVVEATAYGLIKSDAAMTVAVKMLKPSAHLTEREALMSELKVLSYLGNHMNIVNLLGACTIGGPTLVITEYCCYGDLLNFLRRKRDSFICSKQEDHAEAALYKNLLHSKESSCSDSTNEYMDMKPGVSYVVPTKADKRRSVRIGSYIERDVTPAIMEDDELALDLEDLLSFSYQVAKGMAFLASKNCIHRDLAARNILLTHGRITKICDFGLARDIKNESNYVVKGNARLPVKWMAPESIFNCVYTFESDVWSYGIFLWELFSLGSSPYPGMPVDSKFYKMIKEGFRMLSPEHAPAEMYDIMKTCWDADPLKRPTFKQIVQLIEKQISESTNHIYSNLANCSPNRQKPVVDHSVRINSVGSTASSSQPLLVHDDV", "assay": "LanthaScreen europium kinase binding assay", "conditions": "BKT300 at 78% purity", "procedure": "as §2, §3"}, "KIT T670E": {"target": "KIT T670E (Homo sapiens, UniProt P10721, T670E)", "sequence (P10721 26-976 T670E)": "as the sequence (P10721 26-976 D820E) above, with T645E, E795D counted along it", "assay": "LanthaScreen europium kinase binding assay", "conditions": "BKT300 at 78% purity", "procedure": "as §2, §3"}, "MAP4K1 (HPK1)": {"target": "MAP4K1 (HPK1) (Homo sapiens, UniProt Q92918)", "assay": "LanthaScreen europium kinase binding assay", "conditions": "BKT300 at 78% purity", "procedure": "as §2, §3"}, "MAP4K2 (GCK)": {"target": "MAP4K2 (GCK) (Homo sapiens, UniProt Q12851)", "assay": "LanthaScreen europium kinase binding assay", "conditions": "BKT300 at 78% purity", "procedure": "as §2, §3"}, "MAP4K4 (HGK)": {"target": "MAP4K4 (HGK) (Homo sapiens, UniProt O95819)", "sequence (O95819 whole entry)": "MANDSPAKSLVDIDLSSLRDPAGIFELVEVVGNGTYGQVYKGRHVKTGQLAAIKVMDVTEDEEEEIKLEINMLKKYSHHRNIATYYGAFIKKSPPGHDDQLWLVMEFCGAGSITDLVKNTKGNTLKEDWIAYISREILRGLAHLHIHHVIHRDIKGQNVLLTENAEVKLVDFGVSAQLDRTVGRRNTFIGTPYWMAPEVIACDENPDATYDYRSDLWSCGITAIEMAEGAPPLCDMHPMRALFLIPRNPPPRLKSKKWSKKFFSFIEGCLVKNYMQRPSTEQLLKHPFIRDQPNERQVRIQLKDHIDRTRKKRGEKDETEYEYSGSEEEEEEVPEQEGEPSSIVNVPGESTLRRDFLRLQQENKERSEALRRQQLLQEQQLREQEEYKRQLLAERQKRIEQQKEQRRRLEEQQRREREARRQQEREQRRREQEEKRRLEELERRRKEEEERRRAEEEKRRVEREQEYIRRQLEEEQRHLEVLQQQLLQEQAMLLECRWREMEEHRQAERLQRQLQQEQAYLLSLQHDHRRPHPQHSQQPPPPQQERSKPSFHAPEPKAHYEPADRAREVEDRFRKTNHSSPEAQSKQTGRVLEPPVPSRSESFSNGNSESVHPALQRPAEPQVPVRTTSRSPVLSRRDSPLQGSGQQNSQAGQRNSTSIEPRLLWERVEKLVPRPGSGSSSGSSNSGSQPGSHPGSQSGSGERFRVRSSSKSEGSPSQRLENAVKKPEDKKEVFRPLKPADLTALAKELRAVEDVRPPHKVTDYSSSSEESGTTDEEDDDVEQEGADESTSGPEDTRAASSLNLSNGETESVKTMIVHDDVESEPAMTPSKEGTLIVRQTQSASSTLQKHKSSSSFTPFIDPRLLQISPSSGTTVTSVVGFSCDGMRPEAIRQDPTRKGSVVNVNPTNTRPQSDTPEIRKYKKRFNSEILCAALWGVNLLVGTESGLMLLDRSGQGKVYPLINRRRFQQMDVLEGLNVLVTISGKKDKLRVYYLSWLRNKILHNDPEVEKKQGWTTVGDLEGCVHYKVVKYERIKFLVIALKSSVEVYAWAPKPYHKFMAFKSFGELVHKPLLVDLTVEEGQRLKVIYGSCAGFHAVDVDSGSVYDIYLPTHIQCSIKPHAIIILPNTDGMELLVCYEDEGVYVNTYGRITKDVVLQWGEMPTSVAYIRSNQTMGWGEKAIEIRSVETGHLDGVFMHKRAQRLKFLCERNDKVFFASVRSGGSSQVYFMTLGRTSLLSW", "assay": "LanthaScreen europium kinase binding assay", "conditions": "BKT300 at 78% purity", "procedure": "as §2, §3"}, "MLCK (MLCK2)": {"target": "MLCK (MLCK2) (Homo sapiens, UniProt Q9H1R3)", "assay": "LanthaScreen europium kinase binding assay", "conditions": "BKT300 at 78% purity", "procedure": "as §2, §3"}, "MYLK (MLCK)": {"target": "MYLK (MLCK) (Homo sapiens, UniProt Q15746)", "assay": "LanthaScreen europium kinase binding assay", "conditions": "BKT300 at 78% purity", "procedure": "as §2, §3"}, "NUAK2": {"target": "NUAK2 (Homo sapiens, UniProt Q9H093)", "assay": "LanthaScreen europium kinase binding assay", "conditions": "BKT300 at 78% purity", "procedure": "as §2, §3"}, "PIK3CA": {"target": "PIK3CA (Homo sapiens, UniProt P42336)", "assay": "LanthaScreen europium kinase binding assay", "conditions": "BKT300 at 78% purity", "procedure": "as §2, §3"}, "PIK3CD": {"target": "PIK3CD (Homo sapiens, UniProt O00329)", "assay": "LanthaScreen europium kinase binding assay", "conditions": "BKT300 at 78% purity", "procedure": "as §2, §3"}, "STK17A (DRAK1)": {"target": "STK17A (DRAK1) (Homo sapiens, UniProt Q9UEE5)", "sequence (Q9UEE5 whole entry)": "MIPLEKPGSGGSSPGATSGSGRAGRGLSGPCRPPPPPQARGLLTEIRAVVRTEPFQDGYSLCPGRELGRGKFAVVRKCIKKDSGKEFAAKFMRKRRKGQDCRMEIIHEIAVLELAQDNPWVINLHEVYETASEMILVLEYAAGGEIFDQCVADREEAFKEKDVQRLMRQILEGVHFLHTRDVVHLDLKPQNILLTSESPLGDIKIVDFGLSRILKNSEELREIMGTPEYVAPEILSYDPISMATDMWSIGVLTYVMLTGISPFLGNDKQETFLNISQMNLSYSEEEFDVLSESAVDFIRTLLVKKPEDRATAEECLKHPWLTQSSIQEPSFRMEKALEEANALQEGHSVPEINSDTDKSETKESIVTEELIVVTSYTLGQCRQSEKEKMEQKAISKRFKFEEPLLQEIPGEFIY", "assay": "LanthaScreen europium kinase binding assay", "conditions": "BKT300 at 78% purity", "procedure": "as §2, §3"}, "STK17B (DRAK2)": {"target": "STK17B (DRAK2) (Homo sapiens, UniProt O94768)", "assay": "LanthaScreen europium kinase binding assay", "conditions": "BKT300 at 78% purity", "procedure": "as §2, §3"}, "STK38 (NDR)": {"target": "STK38 (NDR) (Homo sapiens, UniProt Q15208)", "assay": "LanthaScreen europium kinase binding assay", "conditions": "BKT300 at 78% purity", "procedure": "as §2, §3"}, "TGFBR2": {"target": "TGFBR2 (Homo sapiens, UniProt P37173)", "assay": "LanthaScreen europium kinase binding assay", "conditions": "BKT300 at 78% purity", "procedure": "as §2, §3"}, "TTK": {"target": "TTK (Homo sapiens, UniProt P33981)", "assay": "LanthaScreen europium kinase binding assay", "conditions": "BKT300 at 78% purity", "procedure": "as §2, §3"}},
  "data": [
    {"smiles": "CCCCCc1cc2cc(O)cc(Oc3c(O)cc(O)cc3CCCCC)c2c(=O)o1", "note": "[BKT300]", "values": [
      {"measurement": "Inhibition of CD4+ T-cell migration towards MIP3a", "setting": "MIP3a", "result": "completely inhibited"},
      {"measurement": "Effect on migration of THP-1 cells towards MCP-1", "setting": "MCP-1; 10 μg/ml", "result": "no apparent effect"},
      {"measurement": "Inhibition of migration of THP-1 cells towards MCP-1", "setting": "MCP-1; 50 μg/ml", "result": "strong inhibition"},
      {"measurement": "% Inhibition", "setting": "BMPR1A (ALK3)", "result": 58, "unit": "%"},
      {"measurement": "% Inhibition", "setting": "CDC7/DBF4", "result": 53, "unit": "%"},
      {"measurement": "% Inhibition", "setting": "CDK1/cyclin A2", "result": 45, "unit": "%"},
      {"measurement": "% Inhibition", "setting": "CLK4", "result": 73, "unit": "%"},
      {"measurement": "% Inhibition", "setting": "DAPK1", "result": 43, "unit": "%"},
      {"measurement": "% Inhibition", "setting": "DAPK2", "result": 65, "unit": "%"},
      {"measurement": "% Inhibition", "setting": "DYRK3", "result": 47, "unit": "%"},
      {"measurement": "% Inhibition", "setting": "GRK4", "result": 63, "unit": "%"},
      {"measurement": "% Inhibition", "setting": "GRK5", "result": 65, "unit": "%"},
      {"measurement": "% Inhibition", "setting": "ICK", "result": 41, "unit": "%"},
      {"measurement": "% Inhibition", "setting": "KIT D820E", "result": 42, "unit": "%"},
      {"measurement": "% Inhibition", "setting": "KIT T670E", "result": 51, "unit": "%"},
      {"measurement": "% Inhibition", "setting": "MAP4K1 (HPK1)", "result": 45, "unit": "%"},
      {"measurement": "% Inhibition", "setting": "MAP4K2 (GCK)", "result": 48, "unit": "%"},
      {"measurement": "% Inhibition", "setting": "MAP4K4 (HGK)", "result": 40, "unit": "%"},
      {"measurement": "% Inhibition", "setting": "MLCK (MLCK2)", "result": 58, "unit": "%"},
      {"measurement": "% Inhibition", "setting": "MYLK (MLCK)", "result": 63, "unit": "%"},
      {"measurement": "% Inhibition", "setting": "NUAK2", "result": 89, "unit": "%"},
      {"measurement": "% Inhibition", "setting": "PIK3CA", "result": 64, "unit": "%"},
      {"measurement": "% Inhibition", "setting": "PIK3CD", "result": 77, "unit": "%"},
      {"measurement": "% Inhibition", "setting": "STK17A (DRAK1)", "result": 48, "unit": "%"},
      {"measurement": "% Inhibition", "setting": "STK17B (DRAK2)", "result": 107, "unit": "%"},
      {"measurement": "% Inhibition", "setting": "STK38 (NDR)", "result": 41, "unit": "%"},
      {"measurement": "% Inhibition", "setting": "TGFBR2", "result": 43, "unit": "%"},
      {"measurement": "% Inhibition", "setting": "TTK", "result": 52, "unit": "%"}
    ]}
  ]
}
